In patent EP1285920A1, “C10 Ester sustituted taxanes as antitumor agents” (Florida State University Research Foundation, Inc., priority 2001, dated 2003):
Read-outs that look alike come from different tables or passages of the source.

Assays:
DU145 prostate carcinoma = conditions: number of 5 mice
From the text: Dosing was initiated on Day 1. […] Treatment groups are detailed in Table 5.

A375 melanoma = conditions: for Complete Response / Partial Response / Stable Disease / Survivors / Toxic Deaths: number of mice; for Mean Score: tumor scoring system
Description: Dosing was initiated on Day 1. […] Taxotere was given i.v. on a qd x 1 schedule at a dose of 70 mg/kg. […] The study was terminated on Day 60. Treatment groups are detailed in Table 9.

VM46 colon carcinoma = conditions: for Mean Score: tumor scoring system
Description: Dosing was initiated on Day 1. […] Taxotere was given i.v. at a dose of 70 mg/kg on a qd x 1 schedule.

[1] = system: Panc-1 pancreatic carcinoma; assay: In vivo evaluation against Panc-1 human pancreatic carcinoma (Example 17)
Description: The dosing volume was 0.3 ml per 20 g mouse.
Female NCr-nude mice were implanted subcutaneously with 1 mm^3 Panc-1 pancreatic carcinoma fragments in the flank and sorted into treatment groups of six mice each. […] Dosing was initiated on Day 1. The antitumor compounds were given i.v. at an estimated maximum tolerated dose (MTD) appropriate for each agent on a qd x 1 schedule (single administration of compound). […] The vehicle was administered i.v. to control mice in Group 1 on the qd x 1 schedule. The study was terminated on Day 60.
The mean days of survival is the number of days after which a neoplasm reached a size of 1.5 g and the animal was euthanized. A complete response is obtained if the tumor shrinks to a size smaller than its size on Day 1 of the study.

[2] = i.v. qd x 1 at estimated MTD (Taxol 24 mg/kg split), Day 91
[3] = Taxol i.p. qd x 5, 18 mg/kg daily, 6 mice
[4] = i.v. qd x 1 at estimated MTD (Taxol 24 mg/kg, Taxotere 70 mg/kg), 6 mice/group (Taxotere 7)
[5] = i.v. qd x 1 at estimated MTD (Taxol 24 mg/kg, Taxotere 70 mg/kg), 6 mice/group (Taxotere 7), Day 60
[6] = number of mice, Taxol 15 mg/kg i.p. qd x 5, 6 mice, Day 64
[7] = number of mice, i.v. qd x 1, mg/kg: Taxol 24, 0499 77, 0503 72.6, 0670 123.1, 0706 107.6, 0838 72.6, 0854 46.6, 0983 67.4, Taxotere 70, 6 mice/group, Day 64
[8] = number of mice, i.v. qd x 1, mg/kg: Taxol 36, 0499 77, 0503 72.6, 0670 123.1, 0706 107.6, 0838 72.6, 0854 76.9, 6 mice/group, Day 60

`CC(=O)O[C@H]1C(=O)[C@@]2(C)[C@H]([C@H](OC(=O)c3ccccc3)[C@]3(O)C[C@H](OC(=O)[C@H](O)[C@@H](NC(=O)c4ccccc4)c4ccccc4)C(C)=C1C3(C)C)[C@]1(OC(C)=O)CO[C@@H]1C[C@@H]2O` [Taxol, paclitaxel, reference compound] was tested, and the “Partial Response” value (DU145 prostate carcinoma; Taxol 18 mg/kg i.p. qd x 5) was 0, the “Stable Disease” value (DU145 prostate carcinoma; Taxol 18 mg/kg i.p. qd x 5) was 0 and the Survivors (DU145 prostate carcinoma; Taxol 18 mg/kg i.p. qd x 5) was 0. The “Toxic Deaths” value (DU145 prostate carcinoma; Taxol 18 mg/kg i.p. qd x 5) was 5, the “Toxic Deaths” value (DU145 prostate carcinoma; i.v. qd x 1 at estimated MTD (Taxol 24 mg/kg as two split doses), Day 91) was 1 and the “Complete Response” value (DU145 prostate carcinoma; [2]) was 0. For the same compound, the “Partial Response” value (DU145 prostate carcinoma; [2]) was 0, the Survivors (DU145 prostate carcinoma; [2]) was 1 and the “toxicity” value (A375 melanoma; A375, Taxol i.p. 18 mg/kg qd x 5) was “highly toxic”. For the same compound, the “animals died of toxicity” value (A375 melanoma; A375, Taxol i.p. 18 mg/kg qd x 5, six animals) was “six”, the “survival extension compared to Group 1 controls” value (A375 melanoma; A375, i.v. qd x 1) was 26% and the MDS (A375 melanoma; A375, i.v. qd x 1 (Taxol 24 mg/kg split; Taxotere 70 mg/kg), days until tumor 2.0 g, ended Day 60) was 18.1 days. The “MDS (n)” value (A375 melanoma; mean days of survival until neoplasm reached 2.0 g, i.v. qd x 1 at estimated MTD (Taxol 24 mg/kg, Taxotere 70 mg/kg), 6 mice/group (Taxotere 7), terminated Day 60) was 18.1 ± 0.6 (4) days, the “Complete Response” value (A375 melanoma; [3]) was 0 and the “Partial Response” value (A375 melanoma; [3]) was 0. For the same compound, the “Stable Disease” value (A375 melanoma; [3]) was 0, the Survivors (A375 melanoma; [3]) was 0 and the “Toxic Deaths” value (A375 melanoma; [3]) was 6. The “Toxic Deaths” value (A375 melanoma; [4]) was 2, the “Complete Response” value (A375 melanoma; [5]) was 0 and the “Partial Response” value (A375 melanoma; [5]) was 0. The “Stable Disease” value (A375 melanoma; [5]) was 0, the Survivors (A375 melanoma; [5]) was 0 and the “Mean Score” value (A375 melanoma; [3]) was 0 ± 0. For the same compound, the “Mean Score” value (A375 melanoma; [4]) was 0.8 ± 0.3, the “toxicity” value (VM46 colon carcinoma; VM46, Taxol i.p. 15 mg/kg qd x 5) was “excessively toxic” and the mortalities (VM46 colon carcinoma; VM46, Taxol i.p. 15 mg/kg qd x 5, six treated animals) was “three”. For the same compound, the partial responses (VM46 colon carcinoma; VM46, i.v. qd x 1 (compounds estimated MTD; Taxol 24 mg/kg split), six mice per group, ended Day 64) was “one”, the Stable Disease (VM46 colon carcinoma; VM46, i.v. qd x 1, six mice per group) was “one” and the “MDS (n)” value (VM46 colon carcinoma; mean days of survival until neoplasm reached 1.5 g, Taxol 15 mg/kg i.p. qd x 5, 6 mice, terminated Day 64) was 36.1 ± 12.2 (2) days. The “Toxic Deaths” value (VM46 colon carcinoma; number of mice, Taxol 15 mg/kg i.p. qd x 5, 6 mice) was 3, the “Complete Response” value (VM46 colon carcinoma; [6]) was 0 and the “Partial Response” value (VM46 colon carcinoma; [6]) was 1. For the same compound, the “Stable Disease” value (VM46 colon carcinoma; [6]) was 0, the Survivors (VM46 colon carcinoma; [6]) was 1 and the “Toxic Deaths” value (VM46 colon carcinoma; number of mice, i.v. qd x 1, mg/kg: Taxol 24, 0499 77, 0503 72.6, 0670 123.1, 0706 107.6, 0838 72.6, 0854 46.6, 0983 67.4, Taxotere 70, 6 mice/group) was 0. For the same compound, the “Complete Response” value (VM46 colon carcinoma; [7]) was 0, the “Partial Response” value (VM46 colon carcinoma; [7]) was 1 and the “Stable Disease” value (VM46 colon carcinoma; [7]) was 1. For the same compound, the Survivors (VM46 colon carcinoma; [7]) was 2, the “Mean Score” value (VM46 colon carcinoma; Taxol 15 mg/kg i.p. qd x 5, 6 mice) was 1.8 ± 1.3 and the “Mean Score” value (VM46 colon carcinoma; i.v. qd x 1, mg/kg: Taxol 24, 0499 77, 0503 72.6, 0670 123.1, 0706 107.6, 0838 72.6, 0854 46.6, 0983 67.4, Taxotere 70, 6 mice/group) was 3.8 ± 1.4. The “survival extension compared to Group 1 controls” value ([1]; Panc-1 (Example 17), Taxol 36 mg/kg i.v. qd x 1, three mice) was 126%, the Toxic Deaths ([1]; Panc-1 (Example 17), i.v. qd x 1, six mice per group) was “Three” and the “Toxic Deaths” value ([1]; number of mice, i.v. qd x 1, mg/kg: Taxol 36, 0499 77, 0503 72.6, 0670 123.1, 0706 107.6, 0838 72.6, 0854 76.9, 6 mice/group) was 3. For the same compound, the “Complete Response” value [1, 8] was 0, the “Partial Response” value [1, 8] was 0 and the “Stable Disease” value [1, 8] was 0. For the same compound, the Survivors [1, 8] was 0 and the “Mean Score” value ([1]; tumor scoring system, i.v. qd x 1, mg/kg: Taxol 36, 0499 77, 0503 72.6, 0670 123.1, 0706 107.6, 0838 72.6, 0854 76.9, 6 mice/group) was 1.6 ± 0.7.
